Assay results: patent publication US12358910B2, “Heteroaromatic compounds as Vanin inhibitors” (Boehringer Ingelheim International GmbH, priority 2018, dated 2025)

Key:
[1] = biological target: T1, FLAG-tagged Vanin-1 (AA 22-493, T26I) (Homo sapiens, UniProt O95497, T26I); assay: Vanin-1 enzymatic assay (pantothenic acid formation, RapidFire mass spectrometry); type: biochemical; settings: 0.1 nM FLAG-tagged Vanin-1, 3 μM D-pantethine, room temperature; geometric mean in case of multiple measurements; read-out: VNN-1 IC50
T1 construct: FLAG-tagged Vanin-1 (AA 22-493, T26I, produced internally); FLAG; made in house
T1 sequence (O95497 22-493 T26I): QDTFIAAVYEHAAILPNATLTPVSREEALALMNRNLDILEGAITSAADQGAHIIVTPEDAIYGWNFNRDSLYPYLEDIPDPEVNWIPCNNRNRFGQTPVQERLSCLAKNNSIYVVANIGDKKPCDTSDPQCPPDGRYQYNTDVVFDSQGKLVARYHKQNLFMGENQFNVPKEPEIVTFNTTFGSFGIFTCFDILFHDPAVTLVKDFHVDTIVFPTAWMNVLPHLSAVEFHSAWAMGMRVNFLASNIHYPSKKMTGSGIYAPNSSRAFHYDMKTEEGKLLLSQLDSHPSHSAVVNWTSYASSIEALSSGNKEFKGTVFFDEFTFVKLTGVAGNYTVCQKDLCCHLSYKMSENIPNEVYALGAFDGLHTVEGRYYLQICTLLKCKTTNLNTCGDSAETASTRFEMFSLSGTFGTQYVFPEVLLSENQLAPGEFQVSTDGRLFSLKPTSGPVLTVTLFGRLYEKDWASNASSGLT
Procedure: Description of Biological Properties Vanin-1 Enzymatic Assay:
The test compounds are dissolved in 100% DMSO at a concentration of 10 mM and in a first step diluted in DMSO to a concentration of 5 mM, followed by serial dilution steps in 100% DMSO. Dilution factor and number of dilution steps may vary according to needs. Typically 8 different concentrations by 1:5 dilutions are prepared, a further intermediate dilutions of the substances is carried out with assay buffer resulting in 1% final DMSO concentration in the assay.
0.1 nM of FLAG-tagged Vanin-1 (AA 22-493, T26I, produced internally) and test compounds are incubated at room temperature for 20 minutes in assay buffer (1 mM DTT, 0.0025% Brij-35, 50 mM HEPES, pH7.5). D-Pantethine (Sigma, Cat #P2125-5G) in assay buffer is added (final concentration 3 μM) and incubated for additional 30 minutes at room temperature. Total assay volume typically is 40 μl but might be adjusted according to needs. Reaction is stopped by adding equal volume of stop solution as the reaction mixture to reach 100 nM HD-pantothenic acid (as an internal standard) and 1% TFA. Assay plates are centrifuged for 2 minutes and the formation of pantothenic acid is detected by RapidFire Mass Spectrometry (mobile phase A: 0.1% formic acid and 0.01% trifluoroacetic acid in water; mobile phase B: 47.5% acetonitrile, 47.5% methanol, 0.1% formic acid and 0.01% trifluoroacetic acid in water) using a C18, 12 μL cartridge (Agilent Cat #G9205A).
The values given in Table I result from measurements of one or more samples. In case of multiple measurements the geometric mean values are given.

[2] = tested on: Pantetheinase (vanin); assay: Human Whole Blood assay (vanin activity by pantothenic acid formation); type: cell-based; settings: pantethine substrate, 5 min reaction at room temperature, geometric mean in case of multiple measurements, read-out: HWB IC50
Procedure: Human Whole Blood assay: Pantetheinase (vanin) converts panteheine into pantothenic acid and cysteamine. Accordingly, in the described protocol vanin activity is quantified by formation of pantothenic acid after pantetheine supplementation via pantethine. The assay is applicable to identify vanin inhibitors. Compound stocks are dissolved in DMSO at 10 mM. Further dilutions are performed in RPMI 1640 medium (Gibco, #A-10491-01) and final concentrations in the assay are 0.032 nM-500 nM.
Human blood is drawn into a blood bag (1% heparin, 50 I.E./mL). Blood is aliquoted into cavities of 96-deep-well plates at 290 μL and mixed with 10 μL compound solution or vehicle (30 sec at 1400 rpm on a shaker). Equilibration follows at room temperature, 250 rpm and for 30 min. The assay is started by adding 10 μL of substrate solution (2 μM pantethine in 1 mM DTT, 0.0025% Brij-35, 50 mM HEPES, pH7.5) to each well, except for some blank wells which receive […] substrate buffer (1 mM DTT, 0.0025% Brij-35, 50 mM HEPES, pH7.5) only. Samples are thoroughly shaken (30 sec, 1400 rpm) and reaction is allowed to take place at room temperature, 250 rpm and for 5 min. The reaction is stopped by addition of a vanin tool inhibitor in excess (BI-1 total conc. 10 μM). Centrifugation of the plate follows at 4° C., 665 G for 10 min. Then the blood plasma samples (100 μL) are transferred into another 96-deep-well plate and proteins are precipitated (5 min on ice) by adding 100 μL of ice cold precipitation solution (1 μM labelled pantothenic acid (di-β-alanine-13C6,15N2 calcium salt, Sigma, #705837) in acetonitrile).
Afterwards the plate is centrifuged (4° C., 3220 G, 10 min) and supernatants (50 μL) are collected into another 96-deep-well plate and mixed (10 sec, 1400 rpm) with 150 μL ice cold formic acid (0.1%, Carl Roth GmbH+Co.KG, #CP03.1). The formation of pantothenic acid is detected by RapidFire Mass Spectrometry. A TripleQuad 6500+(ABSciex, Germany) is equipped with an LC-1290 system, a RapidFire autosampler (Agilent, Germany) and a C18 cartridge Type C 12 μL (Agilent Cat #G9526-80000). Mobile phase A is consisting of 0.09% formic acid and 0.01% trifluoroacetic acid in water and mobile phase B of 0.09% formic acid and 0.01% trifluoroacetic acid in acetonitrile/methanol/water=47.5/47.5/5.

| SMILES | IC50 [1] [nM] | IC50 [2] [nM] |
| --- | --- | --- |
| CC(=O)N(C)[C@H]1CCN(C(=O)c2ccc(N[C@@H](C)c3nc4ccccc4[nH]3)nc2)C1 [Example 5.23] | 1.43 | 4.1 |
| CC(=O)N(C)[C@H]1CCN(C(=O)c2ccc(NCc3ccc4ncccc4c3)nc2)C1 [Example 5.26] | 1.62 |  |
| CC(=O)N(C)[C@H]1CCN(C(=O)c2ccc(N[C@@H](C)c3nc4cc(Cl)ccc4[nH]3)nc2)C1 [Example 5.15] | 0.6 | 7.52 |
| CC(=O)N(C)[C@H]1CCN(C(=O)c2ccc(NCc3csc4ccc(Cl)cc34)nc2)C1 [Example 2.3] | 0.21 |  |
| CC(=O)N(C)[C@H]1CCN(C(=O)c2ccc(NCc3cc(C)cc4[nH]ncc34)nc2)C1 [Example 6.1, N-Methyl-N-[(3S)-1-(6-{[(6-methyl-1H-indazol-4-yl)methyl]amino}pyridine-3-carbonyl)pyrrolidin-3-yl]acetamide] | 0.14 |  |
| CC(=O)N(C)[C@H]1CCN(C(=O)c2ccc(NCc3cnc4ccccc4c3)nc2)C1 [Example 5.11] | 0.21 |  |
| C[C@H](Nc1ccc(C(=O)N2CC[C@H](N(C)C(=O)C3CC(F)(F)C3)C2)cn1)c1cnc2[nH]ccc2c1 [Example 1.6] | 0.12 | 6.38 |
| C[C@H](Nc1ccc(C(=O)N2CC[C@H](N(C)C(=O)C3CCC3)C2)cn1)c1cnc2[nH]ccc2c1 [Example 1.4] | 0.1 | 2.07 |
| C[C@H](Nc1ccc(C(=O)N2CC[C@H](N(C)C(=O)C3CC(F)(F)C3)C2)cn1)c1cnc2[nH]ccc2c1 [Example 1.10] | 0.16 | 2.78 |
| CC(=O)N(C)[C@H]1CCN(C(=O)c2ccc(NC(C)c3cccc4[nH]ccc34)nc2)C1 (stereo partly shown) [Example 5.10] | 0.18 | 1.41 |
| CC(=O)N(C)[C@H]1CCN(C(=O)c2ccc(NCc3ccc4[nH]ccc4c3)nc2)C1 [Example 5.17] | 0.64 |  |
| CC(=O)N(C)[C@H]1CCN(C(=O)c2ccc(NCc3cnc4ccccn34)nc2)C1 [Example 5.12] | 0.23 | 3.91 |
| CC(=O)N(C)[C@H]1CCN(C(=O)c2ccc(N[C@@H](C)c3ccc4[nH]ncc4c3)nc2)C1 [Example 5.8] | 0.16 | 1.71 |
| CC(=O)N(C)[C@H]1CCN(C(=O)c2ccc(NCc3c(Cl)nc4sccn34)nc2)C1 [Example 5.4] | 0.12 | 1.59 |
| C[C@H](Nc1ccc(C(=O)N2CC[C@H](N(C)C(=O)C3(C#N)CC3)C2)cn1)c1cnc2[nH]ccc2c1 [Example 1.7] | 0.13 | 1.7 |
| CC(=O)N(C)[C@H]1CCN(C(=O)c2ccc(N[C@H](C)c3ccc4c(cnn4C)c3)nc2)C1 [Example 5.32] | 9.06 |  |
| CC(=O)N(C)[C@H]1CCN(C(=O)c2ccc(NCc3cc4ccccc4s3)nc2)C1 [Example 2.6] | 2.05 |  |
| CC(=O)N(C)[C@H]1CCN(C(=O)c2ccc(NCc3cccc4cccnc34)nc2)C1 [Example 5.30] | 3.02 |  |
| CC1(C#N)CCN(C(=O)c2ccc(NCc3ccnc4[nH]ccc34)nc2)C1 (stereo not shown) [Example 1.19] | 0.3 | 3.78 |
| O=C(c1ccc(NCc2cnc3ccccn23)nc1)N1CC[C@H](N2CCCC2=O)C1 [Example 1.15] | 0.19 | 4.82 |
| CC(=O)N(C)[C@H]1CCN(C(=O)c2ccc(NCc3cc(Br)cc4[nH]ncc34)nc2)C1 [Example 5.5] | 0.13 |  |

| SMILES | IC50 [1] [nM] | IC50 [2] [nM] |
| --- | --- | --- |
| CC1(C#N)CCN(C(=O)c2ccc(NCc3ncn4ccccc34)nc2)C1 (stereo not shown) [Example 1.17] | 0.83 | 10.4 |
| CC(=O)N(C)[C@H]1CCN(C(=O)c2ccc(NCc3cnn4cccnc34)nc2)C1 [Example 5.29] | 2.74 |  |
| CC1(C#N)CCN(C(=O)c2ccc(NCc3cnc4ccccn34)nc2)C1 (stereo not shown) [Example 1.18] | 0.41 | 3.67 |
| CC(=O)N(C)[C@H]1CCN(C(=O)c2ccc(N[C@@H](C)c3nc4cc(Cl)c(F)cc4[nH]3)nc2)C1 [Example 5.20] | 0.76 |  |
| CC(=O)N(C)[C@H]1CCN(C(=O)c2ccc(N[C@H](C)c3cccc4nn(C)cc34)nc2)C1 [Example 5.27] | 2.25 |  |
| C[C@H](Nc1ccc(C(=O)N2CC[C@H](N(C)C(=O)C3(C)CCC3)C2)cn1)c1cnc2[nH]ccc2c1 [Example 1.11] | 0.2 |  |
| CC(=O)N(C)[C@H]1CCN(C(=O)c2ccc(NCc3cc4ccccc4[nH]3)nc2)C1 [Example 5.33] | 9.33 |  |
| CC(=O)N(C)[C@H]1CCN(C(=O)c2ccc(N[C@@H](C)c3cccc4ccccc34)nc2)C1 [Example 2.2] | 0.14 |  |
| CC(=O)N(C)[C@H]1CCN(C(=O)c2ccc(NCc3n[nH]c4c3CCCC4)nc2)C1 [Example 5.28] | 2.65 |  |
| CC(=O)N(C)[C@H]1CCN(C(=O)c2ccc(NCc3cccc4c3ccn4C)nc2)C1 [Example 2.5] | 0.67 |  |
| C[C@H](Nc1ccc(C(=O)N2CC[C@H](N(C)C(=O)C3(C)CCC3)C2)cn1)c1cnc2[nH]ccc2c1 [Example 1.8] | 0.14 |  |
| CC(=O)N(C)[C@H]1CCN(C(=O)c2ccc(N[C@@H](C)c3ccc4c(cnn4C)c3)nc2)C1 [Example 5.37] | 0.24 |  |
| CC(=O)N(C)[C@H]1CCN(C(=O)c2ccc(NCc3ccc4onc(N)c4c3)nc2)C1 [Example 5.34] | 9.43 |  |
| CC1(C#N)CCN(C(=O)c2ccc(NCc3csc4ccccc34)nc2)C1 (stereo not shown) [Example 9.2] | 1.14 |  |
| CC(=O)N(C)[C@H]1CCN(C(=O)c2ccc(N[C@H](C)c3cccc4c3cnn4C)nc2)C1 [Example 5.25] | 1.43 |  |
| CN(C(=O)C1CCC1)[C@H]1CCN(C(=O)c2ccc(NCc3csc4ccccc34)nc2)C1 [Example 9.1, N-[(3S)-1-(6-{[(1-Benzothiophen-3-yl)methyl]amino}pyridine-3-carbonyl)pyrrolidin-3-yl]-N-methylcyclobutanecarboxamide] | 0.26 |  |
| CC(=O)N(C)[C@H]1CCN(C(=O)c2ccc(NCc3ccc4nc(N)[nH]c4c3)nc2)C1 [Example 5.18] | 0.69 |  |
| O=C(c1ccc(NCc2csc3ccccc23)nc1)N1CC[C@H](N2CCOC2=O)C1 [Example 8.1, 3-[(3S)-1-(6-{[(1-Benzothiophen-3-yl)methyl]amino}pyridine-3-carbonyl)pyrrolidin-3-yl]-13-oxazolidin-2-one] | 0.2 |  |
| CC(=O)N(C)[C@H]1CCN(C(=O)c2ccc(NCc3nc4ccccc4s3)nc2)C1 [Example 5.31] | 4.62 |  |
| O=C(c1ccc(NCc2csc3ccccc23)nc1)N1CC[C@H](N2CCCC2=O)C1 [Example 8.2] | 0.21 |  |
